11 compounds from PubChem BioAssay (NCI) can be followed below.

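A five-concentration, 48-hour dose response in 96-well plates underlies each endpoint, interpolated linearly between surrounding concentrations. The concentration for 50% growth inhibition is given as GI50. TGI: concentration producing complete growth inhibition.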 Where a SMILES comes first, the peptide text is derived from it. [ ]: non-standard residue; d: D form. The star is where a group is joined. X28 = COC1=CC(=O)N(C(=O)[C@@H](O*)C(C)C)[C@H]1Cc1ccccc1; NMeV = CN[C@H](C(=O)O)C(C)C; Hexanoyl = CCCCCC(=O)*

Among the test systems are SNB-75 CNS; CAKI-1 renal; ACHN renal; PC-3 prostate; LOX IMVI melanoma; HS 578T breast; MDA-MB-231 breast; BT-549 breast; SW-620 colon; NCI-H226 lung.
What all share (test): growth of human tumour cells (NCI), 48 h

As to `CCCCCC(=O)N[C@H](C(=O)N[C@H](C(=O)N(C)[C@H](C(=O)N1CCC[C@H]1C(=O)N1CCC[C@H]1C(=O)O[C@H](C(=O)N1C(=O)C=C(OC)[C@@H]1Cc1ccccc1)C(C)C)C(C)C)C(C)C)C(C)C` (Hexanoyl-VV[NMeV]PP-X28), the TGI in the assay on SNB-75 CNS is 38.5 µM; with CAKI-1 renal, greater than 100 µM; in the assay on ACHN renal it was greater than 100 µM; in the assay on PC-3 prostate it was 85.5 µM; with LOX IMVI melanoma it was greater than 100 µM; in the assay with HS 578T breast it was greater than 100 µM. Also, the TGI in the assay on MDA-MB-231 breast, in the assay with BT-549 breast, with SW-620 colon and in the assay with NCI-H226 lung was greater than 100 µM in each case.
As to `CC#CC#C/C=C1/O[C@]2(CCC(OC(C)=O)CO2)[C@@H]2O[C@H]12` (stereo not given in full), the TGI with SNB-75 CNS is greater than 100 µM; in the assay with CAKI-1 renal it was 63.6 µM; in the assay with ACHN renal, 60.8 µM; in the assay with PC-3 prostate it was 80.9 µM; with LOX IMVI melanoma, 48.2 µM; with HS 578T breast, greater than 100 µM. For the same compound, the TGI with MDA-MB-231 breast came out at 44.2 µM; in the assay with BT-549 breast it was 50.4 µM; with SW-620 colon, 95.9 µM; in the assay on NCI-H226 lung, 47.4 µM.
`N=c1oc2c(Cl)cc(Cl)cc2cc1C(=O)Nc1cccc2ccccc12`: the TGI in the assay on SNB-75 CNS is 10.9 µM; with CAKI-1 renal it was greater than 67.7 µM; in the assay with ACHN renal, 11.2 µM; with PC-3 prostate, greater than 100 µM; in the assay on LOX IMVI melanoma, greater than 24 µM; with HS 578T breast it was greater than 53.2 µM. Also, the TGI with MDA-MB-231 breast was 11.3 µM; with BT-549 breast, greater than 100 µM; with SW-620 colon, 27.1 µM; in the assay on NCI-H226 lung, 66.2 µM.
As to `COc1ccc2nc(-n3c(/C=C/c4ccccc4O)nc4ccccc4c3=O)sc2c1`, the TGI in the assay on SNB-75 CNS, in the assay on CAKI-1 renal, in the assay on ACHN renal, with PC-3 prostate, in the assay with LOX IMVI melanoma and in the assay on HS 578T breast was greater than 100 µM throughout. Moreover, the TGI in the assay on MDA-MB-231 breast, in the assay on BT-549 breast, in the assay on SW-620 colon and in the assay on NCI-H226 lung was greater than 100 µM in each case.
Consider `O=C(CCCCCCC(=O)Nc1ccc(N(CCCl)CCCl)cc1)NO`, for which the GI50 in the assay with SNB-75 CNS was 1.35 µM; in the assay on CAKI-1 renal it was 1.2 µM; in the assay with ACHN renal, 1.09 µM; with PC-3 prostate, 3.7 µM; in the assay with LOX IMVI melanoma, 1.34 µM; with HS 578T breast, 5.66 µM. Besides, the GI50 is 6.99 µM with MDA-MB-231 breast, 5.83 µM in the assay with BT-549 breast, 1.71 µM with SW-620 colon and 4.01 µM with NCI-H226 lung. Besides, the TGI in the assay on SNB-75 CNS was 10.1 µM; in the assay on CAKI-1 renal, 11.2 µM; with ACHN renal it was 4.86 µM; in the assay on PC-3 prostate, greater than 100 µM; with LOX IMVI melanoma, 3.78 µM; with HS 578T breast it was greater than 100 µM. In addition, the TGI with MDA-MB-231 breast amounted to 52.4 µM; with BT-549 breast it was 29.2 µM; with SW-620 colon it was 22 µM; in the assay with NCI-H226 lung, 21 µM.
As to `Cn1c(=S)[nH]c2sc3c(c2c1=O)CCSC3`, the TGI in the assay on SNB-75 CNS, with CAKI-1 renal, with ACHN renal, in the assay on PC-3 prostate, in the assay on LOX IMVI melanoma and with HS 578T breast was greater than 100 µM in each case. Besides, the TGI was greater than 100 µM with MDA-MB-231 breast, greater than 100 µM in the assay on BT-549 breast, greater than 100 µM in the assay with SW-620 colon and 88.6 µM in the assay with NCI-H226 lung.
`CC(=O)Nc1cc([As](=O)(O)O)ccc1O`: the TGI in the assay with SNB-75 CNS, in the assay with CAKI-1 renal, in the assay on ACHN renal, in the assay with PC-3 prostate, with LOX IMVI melanoma and in the assay with HS 578T breast was greater than 100 µM each time. In addition, the TGI in the assay on MDA-MB-231 breast, in the assay on BT-549 breast, in the assay with SW-620 colon and in the assay on NCI-H226 lung was greater than 100 µM in each case.
Take `COc1ccc2nc(N/N=C/C(C)=N/Nc3cc(C)c4cc(OC)ccc4n3)cc(C)c2c1`: the TGI with SNB-75 CNS was 47.7 µM; with CAKI-1 renal it was 76.1 µM; in the assay with ACHN renal, 55.3 µM; in the assay on PC-3 prostate it was 45.6 µM; in the assay on LOX IMVI melanoma, 54.8 µM; in the assay on HS 578T breast, 68.8 µM. Besides, the TGI with MDA-MB-231 breast was 36.7 µM; with BT-549 breast, greater than 100 µM; with SW-620 colon it was 43.5 µM; in the assay with NCI-H226 lung, 53.3 µM.
For `NC(=O)c1cc2cc(Cl)cc(Cl)c2oc1=Nc1ccc(F)cc1`, the TGI with SNB-75 CNS is 30.3 µM; in the assay on CAKI-1 renal, 38 µM; in the assay with ACHN renal, 41.8 µM; with PC-3 prostate it was 44.3 µM; with LOX IMVI melanoma, greater than 100 µM; in the assay with HS 578T breast, greater than 100 µM. The TGI in the assay on MDA-MB-231 breast was 35.6 µM; in the assay with BT-549 breast, 37 µM; in the assay with SW-620 colon it was greater than 100 µM; in the assay with NCI-H226 lung, 43.5 µM.
On to `COC(=O)C1=CC2CCCC1(O)C(C(C)=O)C2` (stereo not given), for which the TGI with SNB-75 CNS was greater than 31.6 µM; in the assay with CAKI-1 renal, greater than 100 µM; in the assay on ACHN renal, greater than 100 µM; in the assay on PC-3 prostate, greater than 100 µM; in the assay on LOX IMVI melanoma, 34.3 µM; in the assay on HS 578T breast, greater than 100 µM. Also, the TGI with MDA-MB-231 breast, in the assay on BT-549 breast, with SW-620 colon and in the assay on NCI-H226 lung was greater than 100 µM in each case.
On to `CC1SC(c2ccccc2)N(CCc2cccs2)C1=O` (stereo not given), for which the GI50 with SNB-75 CNS was 3.01 µM; in the assay with CAKI-1 renal it was 3.15 µM; in the assay on ACHN renal, 4.69 µM; in the assay on PC-3 prostate, 2.68 µM; with LOX IMVI melanoma, 2.9 µM; with HS 578T breast, 4.52 µM. The GI50 is 3.3 µM with MDA-MB-231 breast, 3.35 µM in the assay on BT-549 breast, 4.6 µM in the assay with SW-620 colon and 6.15 µM in the assay on NCI-H226 lung. Besides, the TGI in the assay on SNB-75 CNS stood at 17.8 µM; in the assay with CAKI-1 renal, 16.2 µM; in the assay on ACHN renal, 17.9 µM; with PC-3 prostate, 15.7 µM; with LOX IMVI melanoma it was 13.7 µM; in the assay on HS 578T breast, 38.1 µM. Moreover, the TGI is 16.1 µM with MDA-MB-231 breast, 12.9 µM in the assay on BT-549 breast, 18.3 µM in the assay with SW-620 colon and 26.4 µM in the assay on NCI-H226 lung.
